Assay results: ChEMBL document CHEMBL4396928, “Discovery of Selective, Orally Bioavailable Pyrazolopyridine Inhibitors of Protein Kinase Cθ (PKCθ) That Ameliorate Symptoms of Experimental Autoimmune Encephalomyelitis” (ACS Med Chem Lett, 2019)
Values after ≈ are worked out from the molar mass of the structure shown. Active and inactive are the calls of the source. The rule behind the calls is not given here.

Key:
[1] = Half-life in iv dosed cynomolgus monkey; assay type: ADME, organism-based, Macaca fascicularis; conditions: in vivo
[2] = target: Protein kinase C beta type (Homo sapiens, UniProt P05771); assay: Inhibition of human PKC beta
[3] = Dissociation constant, pKa of compound; assay type: physicochemical
[4] = Clearance in iv dosed rat; assay type: ADME, organism-based; conditions: in vivo
[5] = test system: HFL1; assay: Cytotoxicity against human HFL1 cells assessed as growth inhibition measured after 48 hrs by 3H-thymidine incorporation assay; assay type: cell-based
[6] = Stability of compound in rat liver microsomes assessed as compound remaining at 30 mins; assay type: ADME, Microsome; conditions: read-out: Stability
[7] = Permeability across apical to basolateral side in human Caco2 cells measured at 120 mins by LC-MS/MS analysis; assay type: ADME, cell-based; conditions: Caco-2, read-out: permeability
[8] = target: Protein kinase C alpha type (Homo sapiens, UniProt P17252); assay: Inhibition of recombinant full length PKC alpha (unknown origin) using RRRRRKGSFKRKA peptide as substrate measured after 15 mins in presence of ATP by spectrophotometric analysis
[9] = Stability of compound in human liver microsomes assessed as compound remaining at 30 mins; assay type: ADME, Microsome; conditions: read-out: Stability
[10] = target: Protein kinase C theta type (Homo sapiens, UniProt Q04759); assay: Inhibition of human recombinant full length His tagged PKC theta expressed in baculovirus using ERMRPRKRQGSVRRRV peptide as substrate incubated for 60 mins in presence of [33P] gammaATP by microbeta liquid scintillation counter
[11] = Half-life in iv dosed dog; assay type: ADME, organism-based, Canis lupus familiaris; conditions: in vivo
[12] = target: Protein kinase C delta type (Homo sapiens, UniProt Q05655); assay: Inhibition of recombinant full length PKC delta (unknown origin) using ERMRPRKR- QGSVRRRV peptide as substrate measured after 15 mins in presence of ATP by spectrophotometric analysis
[13] = test system: Mus musculus; assay: In vivo inhibition of Il-2 production in BALB/c mouse at 25 to 100 mg/lg, po measured after 3 hrs; assay type: functional, organism-based
[14] = Thermodynamic solubility of compound in sodium phosphate buffer at pH 7.4; assay type: physicochemical; conditions: read-out: Therm_solubility
[15] = Oral bioavailability in mouse; assay type: ADME, organism-based; conditions: in vivo
[16] = test system: Mus musculus; assay: Anti-inflammatory activity in C57BL/6 mouse model of MOG (35 to 55 residues)/pertussis toxin/complete Freund's adjuvant-induced autoimmune encephalomyelitis assessed as reduction in development of clinical symptoms at 50 mg/kg, po bid starting from day 8 post immunization upto 10 days; assay type: functional, organism-based
[17] = Clearance in iv dosed cynomolgus monkey; assay type: ADME, organism-based, Macaca fascicularis; conditions: in vivo
[18] = Half-life in iv dosed rat; assay type: ADME, organism-based; conditions: in vivo
[19] = Lipophilicity, logD of compound; assay type: physicochemical; conditions: octanol/water
[20] = Unbound drug level in brain of BALB/c mouse at 50 mg/kg, po measured after 3 hrs; assay type: ADME, organism-based; conditions: in vivo
[21] = Unbound drug level in brain of BALB/c mouse at 100 mg/kg, po measured after 3 hrs; assay type: ADME, organism-based; conditions: in vivo
[22] = Oral bioavailability in rat; assay type: ADME, organism-based; conditions: in vivo
[23] = target: Voltage-gated inwardly rectifying potassium channel KCNH2 (Homo sapiens, UniProt Q12809); assay: Inhibition of human ERG
[24] = Clerance in iv dosed dog; assay type: ADME, organism-based, Canis lupus familiaris; conditions: in vivo
[25] = Efflux ratio of permeability in human Caco2 cells by LC-MS/MS analysis; assay type: ADME, cell-based; conditions: Caco-2
[26] = Inhibition of CD3/CD28 stimulated IL-17 secretion from human Th17 cells measured after 24 hrs by ELISA
[27] = test system: PBMC; assay: Inhibition of IL-2 secretion from human PBMC cells stimulated with anti-CD3/CD28 measured after 24 hrs by bead-based FLISA; assay type: functional, cell-based
[28] = target: Cytochrome P450 3A4 (Homo sapiens, UniProt P08684); assay: Inhibition of CYP3A4 (unknown origin) at 22 uM; assay type: ADME
[29] = target: Cytochrome P450 2D6 (Homo sapiens, UniProt P10635); assay: Inhibition of CYP2D6 (unknown origin) at > 30 uM; assay type: ADME
[30] = target: Cytochrome P450 2C9 (Homo sapiens, UniProt P11712); assay: Inhibition of CYP2C9 (unknown origin) at > 30 uM; assay type: ADME
Cytochrome P450 2C9, sequence (P11712 whole entry): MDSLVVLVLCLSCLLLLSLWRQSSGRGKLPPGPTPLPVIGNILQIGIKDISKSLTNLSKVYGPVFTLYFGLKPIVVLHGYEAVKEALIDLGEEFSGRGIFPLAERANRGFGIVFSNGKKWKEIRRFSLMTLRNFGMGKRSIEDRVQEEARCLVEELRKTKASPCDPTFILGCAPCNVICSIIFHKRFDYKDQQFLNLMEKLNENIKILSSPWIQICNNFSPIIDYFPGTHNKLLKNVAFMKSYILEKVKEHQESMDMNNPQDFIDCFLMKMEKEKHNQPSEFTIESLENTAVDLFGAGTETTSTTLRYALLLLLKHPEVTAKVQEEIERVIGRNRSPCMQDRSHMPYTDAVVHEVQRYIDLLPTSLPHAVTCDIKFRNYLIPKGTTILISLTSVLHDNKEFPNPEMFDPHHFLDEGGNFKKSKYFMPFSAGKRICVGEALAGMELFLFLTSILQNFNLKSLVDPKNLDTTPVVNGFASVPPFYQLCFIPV

Protein kinase C delta type, sequence (Q05655 whole entry): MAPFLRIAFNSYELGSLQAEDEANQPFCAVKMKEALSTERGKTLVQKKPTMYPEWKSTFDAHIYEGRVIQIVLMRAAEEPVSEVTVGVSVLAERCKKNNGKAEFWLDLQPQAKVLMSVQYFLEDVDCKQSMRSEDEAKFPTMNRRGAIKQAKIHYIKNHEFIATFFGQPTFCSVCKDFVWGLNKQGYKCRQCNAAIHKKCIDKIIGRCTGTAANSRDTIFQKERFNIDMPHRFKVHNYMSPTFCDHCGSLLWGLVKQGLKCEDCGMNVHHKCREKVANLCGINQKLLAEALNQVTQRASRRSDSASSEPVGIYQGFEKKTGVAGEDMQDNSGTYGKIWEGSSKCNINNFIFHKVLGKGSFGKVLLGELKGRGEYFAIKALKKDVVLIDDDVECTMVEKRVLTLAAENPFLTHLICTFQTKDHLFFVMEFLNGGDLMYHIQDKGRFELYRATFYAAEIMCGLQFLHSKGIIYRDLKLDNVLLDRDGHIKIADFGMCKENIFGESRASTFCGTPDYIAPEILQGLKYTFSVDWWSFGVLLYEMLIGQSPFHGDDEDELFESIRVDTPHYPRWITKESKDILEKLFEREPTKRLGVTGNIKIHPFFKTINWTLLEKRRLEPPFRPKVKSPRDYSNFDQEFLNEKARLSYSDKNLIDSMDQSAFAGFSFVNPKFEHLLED
Voltage-gated inwardly rectifying potassium channel KCNH2, sequence (Q12809 whole entry): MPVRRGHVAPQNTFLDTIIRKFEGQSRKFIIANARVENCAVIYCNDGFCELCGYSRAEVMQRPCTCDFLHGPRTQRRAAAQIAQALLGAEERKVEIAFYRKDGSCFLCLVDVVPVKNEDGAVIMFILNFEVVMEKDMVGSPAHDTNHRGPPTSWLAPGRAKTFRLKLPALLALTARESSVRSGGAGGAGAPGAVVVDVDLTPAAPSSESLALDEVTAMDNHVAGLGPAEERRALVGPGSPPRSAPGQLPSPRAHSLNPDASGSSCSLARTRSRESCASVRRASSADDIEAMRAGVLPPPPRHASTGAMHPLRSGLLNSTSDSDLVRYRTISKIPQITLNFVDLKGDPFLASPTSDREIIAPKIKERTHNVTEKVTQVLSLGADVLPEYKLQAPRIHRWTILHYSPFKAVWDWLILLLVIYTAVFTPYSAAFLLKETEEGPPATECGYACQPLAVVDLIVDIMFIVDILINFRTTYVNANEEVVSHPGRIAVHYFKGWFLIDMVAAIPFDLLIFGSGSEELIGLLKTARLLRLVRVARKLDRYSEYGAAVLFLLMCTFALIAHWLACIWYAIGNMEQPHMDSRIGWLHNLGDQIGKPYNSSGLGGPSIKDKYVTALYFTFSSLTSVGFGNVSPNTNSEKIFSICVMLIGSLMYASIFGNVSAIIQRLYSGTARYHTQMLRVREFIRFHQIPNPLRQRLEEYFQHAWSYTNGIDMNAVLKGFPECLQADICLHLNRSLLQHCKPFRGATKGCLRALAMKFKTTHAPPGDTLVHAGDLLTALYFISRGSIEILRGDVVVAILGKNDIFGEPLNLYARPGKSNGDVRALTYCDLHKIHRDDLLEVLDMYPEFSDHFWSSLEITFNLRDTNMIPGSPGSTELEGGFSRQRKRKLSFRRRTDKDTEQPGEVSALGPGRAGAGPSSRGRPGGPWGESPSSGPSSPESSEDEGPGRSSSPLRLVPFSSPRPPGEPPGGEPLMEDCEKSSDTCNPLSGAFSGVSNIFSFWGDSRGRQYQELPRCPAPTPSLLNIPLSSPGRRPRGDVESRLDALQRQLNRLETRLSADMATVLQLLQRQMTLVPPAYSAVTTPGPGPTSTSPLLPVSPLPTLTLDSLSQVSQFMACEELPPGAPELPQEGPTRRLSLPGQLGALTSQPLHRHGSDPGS
Protein kinase C theta type, sequence (Q04759 whole entry): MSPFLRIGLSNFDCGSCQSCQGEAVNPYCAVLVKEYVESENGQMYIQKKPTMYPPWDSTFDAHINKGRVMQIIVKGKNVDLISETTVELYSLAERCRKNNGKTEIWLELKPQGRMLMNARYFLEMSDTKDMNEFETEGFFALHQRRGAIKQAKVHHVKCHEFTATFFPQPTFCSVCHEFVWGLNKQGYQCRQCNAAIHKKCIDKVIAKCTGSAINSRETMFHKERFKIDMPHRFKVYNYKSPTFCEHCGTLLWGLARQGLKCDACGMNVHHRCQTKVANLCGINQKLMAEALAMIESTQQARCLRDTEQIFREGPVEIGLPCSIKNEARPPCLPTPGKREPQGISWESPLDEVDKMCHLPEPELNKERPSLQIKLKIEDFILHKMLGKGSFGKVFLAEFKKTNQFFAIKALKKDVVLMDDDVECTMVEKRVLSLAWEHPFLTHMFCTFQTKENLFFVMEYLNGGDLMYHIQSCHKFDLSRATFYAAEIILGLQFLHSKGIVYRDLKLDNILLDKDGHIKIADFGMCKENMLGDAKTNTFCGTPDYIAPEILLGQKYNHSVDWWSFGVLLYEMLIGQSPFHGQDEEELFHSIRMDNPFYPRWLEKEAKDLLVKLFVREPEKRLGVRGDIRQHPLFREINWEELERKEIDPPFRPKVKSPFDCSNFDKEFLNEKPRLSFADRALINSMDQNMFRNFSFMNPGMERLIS
Cytochrome P450 2D6, sequence (P10635 whole entry): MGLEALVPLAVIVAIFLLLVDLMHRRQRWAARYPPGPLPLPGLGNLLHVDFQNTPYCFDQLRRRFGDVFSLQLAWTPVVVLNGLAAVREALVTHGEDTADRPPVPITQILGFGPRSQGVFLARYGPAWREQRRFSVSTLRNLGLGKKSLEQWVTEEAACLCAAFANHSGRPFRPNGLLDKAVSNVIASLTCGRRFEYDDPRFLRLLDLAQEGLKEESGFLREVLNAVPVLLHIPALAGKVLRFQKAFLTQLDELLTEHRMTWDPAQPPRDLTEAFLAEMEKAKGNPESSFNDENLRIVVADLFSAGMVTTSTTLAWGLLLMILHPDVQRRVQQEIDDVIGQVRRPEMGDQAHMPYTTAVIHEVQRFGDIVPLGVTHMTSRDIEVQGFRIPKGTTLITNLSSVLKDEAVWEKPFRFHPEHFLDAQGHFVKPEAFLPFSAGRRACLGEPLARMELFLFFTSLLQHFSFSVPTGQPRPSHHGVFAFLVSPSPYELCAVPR
Protein kinase C beta type, sequence (P05771 whole entry): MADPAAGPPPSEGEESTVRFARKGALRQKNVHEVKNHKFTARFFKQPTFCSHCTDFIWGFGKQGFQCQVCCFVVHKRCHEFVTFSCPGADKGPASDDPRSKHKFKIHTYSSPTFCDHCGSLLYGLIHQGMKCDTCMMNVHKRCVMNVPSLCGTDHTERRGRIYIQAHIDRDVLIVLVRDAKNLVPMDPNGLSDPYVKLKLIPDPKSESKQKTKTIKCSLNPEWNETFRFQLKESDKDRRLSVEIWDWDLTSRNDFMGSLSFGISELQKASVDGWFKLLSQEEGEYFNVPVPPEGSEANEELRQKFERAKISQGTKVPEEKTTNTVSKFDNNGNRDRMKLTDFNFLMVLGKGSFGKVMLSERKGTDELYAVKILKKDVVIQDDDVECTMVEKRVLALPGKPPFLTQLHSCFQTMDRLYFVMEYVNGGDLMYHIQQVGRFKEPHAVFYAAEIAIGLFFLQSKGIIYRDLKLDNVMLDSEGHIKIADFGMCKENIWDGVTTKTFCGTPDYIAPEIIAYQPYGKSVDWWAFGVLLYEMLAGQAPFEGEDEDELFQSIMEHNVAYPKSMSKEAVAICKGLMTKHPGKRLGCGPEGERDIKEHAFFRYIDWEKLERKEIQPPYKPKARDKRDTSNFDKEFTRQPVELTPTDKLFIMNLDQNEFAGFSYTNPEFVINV

Compound | pKa [3] | IC50 [5] [µM] | remaining at 0.5 h [6] [%] | Ki [8] [µM] | remaining at 0.5 h [9] [%] | Ki [10] [µM] | Ki [12] [µM] | logD [19] | IC50 [23] [µM] | IC50 [27] [µM] | other results
NCC1(c2cccc(-c3ccnc4[nH]nc(C(F)(F)F)c34)c2)COC1 | 7.6 | > 10 | 77 | 1.02 | 100 | 0.006 | 0.392 | 1.7 | > 10 | 0.21 | half-life [1]: 5.1 h; Ki [2]: 1.7 µM; clearance [4]: 3.72 L/h/kg; Papp A→B at 2 h [7]: 190 nm/s; half-life [11]: 6.2 h; inhibition [13]: Active; solubility thermodynamic [14]: 515 µM (≈ 179 µg/mL); bioavailability [15]: 67%; Activity [16]: Active; clearance [17]: 0.54 L/h/kg; half-life [18]: 1.2 h; Drug uptake(free) [20]: 0.19 µM; Drug uptake(free) [21]: 0.4 µM; bioavailability [22]: 46%; clearance [24]: 0.72 L/h/kg; efflux ratio [25]: 2.4; IC50 [26]: 1 µM
Cc1cc(-c2ccnc3[nH]nc(C(F)(F)F)c23)cc(C2(CN)COC2)c1 | 7.9 | 2.5 | 59 | 0.286 | 86 | 0.008 | 0.542 | 2.2 | > 10 | 0.45 | inhibition (INH) [28]: Active; inhibition (INH) [29]: Active; inhibition (INH) [30]: Active
